Experimental data taken from patent US20070142389A1, “PIPERIDINE DERIVATIVES” (PFIZER INC., priority 2005, published 2007).
Like-named read-outs stand apart in the source and are kept apart here.

Assays:
[1] = biological target: T1, human serotonin transporter (Homo sapiens, UniProt P31645); experiment: hSERT Receptor Binding ([125I]-RTI-55 displacement, HEK-293 membranes)
T1 construct: expressed in transfected cells; host or cells: HEK-293
Protocol: (§1) Cell pastes of HEK-293 cells transfected with a human serotonin transporter cDNA were prepared. The cell pastes were resuspended in 400 to 700 mL of Krebs-HEPES assay buffer (25 mM HEPES, 122 mM NaCl, 3 mM KCl, 1.2 mM MgSO4, 1.3 mM CaCl2, and 11 mM glucose, pH 7.4) with a Polytron homogenizer at Setting 7 for 30 seconds. Aliquots of membranes (about 2.5 mg/mL protein) were stored in liquid nitrogen until used.
Assays were set up in FlashPlates pre-coated with 0.1 % PEI in a total volume of 250 μL containing: compound of one of the Examples (10^−5M to 10^−12M), cell membanes, and 50 pM [^125l]-RTI-55 (Perkin Elmer, NEX-272; specific activity 2200 Ci/mmol). The reaction was incubated and gently agitated for 90 minutes at room temperature, and terminated by removal of assay volume. Plates were covered, and bound [^125I]-RTI-55 was determined using a Wallac Trilux Beta Plate Counter. Test compounds were run in duplicate, and specific binding was defined as the difference between binding in the presence and absence of 10 μM citalopram.
(§2) Excel and GraphPad Prism software were used for data calculation and analysis. IC50 values were converted to Ki values using the Cheng-Prusoff equation.

[2] = biological target: T2, human norepinephrine transporter (Homo sapiens, UniProt P23975); experiment: hNET Receptor Binding ([125I]-RTI-55 displacement, HEK-293 membranes)
T2 construct: expressed in transfected cells; host or cells: HEK-293
T2 sequence (P23975 whole entry): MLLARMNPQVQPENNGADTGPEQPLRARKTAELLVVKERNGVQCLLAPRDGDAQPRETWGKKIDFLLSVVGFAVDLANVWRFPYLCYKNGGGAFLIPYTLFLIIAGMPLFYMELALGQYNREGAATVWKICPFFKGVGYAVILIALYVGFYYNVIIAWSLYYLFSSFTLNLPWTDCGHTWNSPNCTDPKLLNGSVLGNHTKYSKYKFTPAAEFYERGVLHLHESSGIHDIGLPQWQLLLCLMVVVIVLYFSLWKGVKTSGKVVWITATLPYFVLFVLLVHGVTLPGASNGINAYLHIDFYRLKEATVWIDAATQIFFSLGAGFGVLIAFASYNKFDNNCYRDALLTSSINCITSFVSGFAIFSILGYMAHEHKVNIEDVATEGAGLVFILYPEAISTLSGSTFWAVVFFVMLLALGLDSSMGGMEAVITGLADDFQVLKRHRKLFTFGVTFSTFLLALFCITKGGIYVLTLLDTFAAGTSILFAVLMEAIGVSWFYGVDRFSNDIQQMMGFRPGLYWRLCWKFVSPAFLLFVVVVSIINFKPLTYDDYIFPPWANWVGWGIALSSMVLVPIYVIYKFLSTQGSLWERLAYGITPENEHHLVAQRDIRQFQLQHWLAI
Protocol: as §1, with “norepinephrine” for “serotonin”, “setting” for “Setting”, “(5” for “(about 2.5”
The binding assay was set up in Beckman deep-well polypropylene plates with a total volume of 250 μL containing: compound of one of the Examples (10^−5M to 10^−12M), cell membranes, and 50 pM [^125I]-RTI-55 (Perkin Elmer, NEX-272; specific activity 2200 Ci/mmol). The reaction was incubated by gentle agitation for 90 minutes at room temperature and was terminated by filtration through Whatman GF/C filter plates using a Brandel 96-well plate harvester. Scintillation fluid (100 μL) was added to each well, and bound [^125I]-RTI-55 was determined using a Wallac Trilux Beta Plate Counter. Test compounds were run in duplicate, and specific binding was defined as the difference between binding in the presence and absence of 10 μM desipramine.
as §2

[3] = hSERT, HEK-293 cell membranes, 50 pM [125I]-RTI-55, Ki from IC50 by Cheng-Prusoff, read-out: SERT Ki
[4] = hNET, HEK-293 cell membranes, 50 pM [125I]-RTI-55, Ki from IC50 by Cheng-Prusoff, read-out: NET Ki

T1 sequence (P31645 whole entry): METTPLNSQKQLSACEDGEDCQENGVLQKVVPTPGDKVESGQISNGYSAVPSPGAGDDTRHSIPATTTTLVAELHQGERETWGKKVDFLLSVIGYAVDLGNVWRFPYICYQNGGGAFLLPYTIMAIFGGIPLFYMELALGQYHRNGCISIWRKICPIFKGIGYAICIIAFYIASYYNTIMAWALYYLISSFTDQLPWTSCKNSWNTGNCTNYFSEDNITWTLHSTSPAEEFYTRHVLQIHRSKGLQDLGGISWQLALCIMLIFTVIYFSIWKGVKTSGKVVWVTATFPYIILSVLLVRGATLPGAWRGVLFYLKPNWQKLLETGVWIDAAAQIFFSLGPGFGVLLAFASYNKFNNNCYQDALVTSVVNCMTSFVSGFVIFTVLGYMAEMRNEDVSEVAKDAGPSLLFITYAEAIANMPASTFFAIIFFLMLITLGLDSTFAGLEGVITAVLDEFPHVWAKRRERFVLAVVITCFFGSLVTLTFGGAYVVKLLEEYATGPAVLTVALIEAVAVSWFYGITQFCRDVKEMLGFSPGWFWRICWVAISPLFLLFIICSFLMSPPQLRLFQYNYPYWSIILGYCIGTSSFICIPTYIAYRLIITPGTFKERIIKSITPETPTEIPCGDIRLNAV

Row | Compound | Ki [1, 3] | Ki [2, 4] | Ki [1] | Ki [2]
1 | CCOc1ncccc1OC[C@@H]1CNCC[C@H]1c1ccc(F)cc1 (racemic) [Example 58, (±)-trans-2-Ethoxy-3-[4-(4-fluoro-phenyl)-piperidin-3-ylmethoxy]-pyridine] | – | – | 5.97 nM | 6.25 nM
2 | CNC(=O)c1ccc(OC[C@@H]2CNCC[C@H]2c2ccccc2)cc1 [Example 29, (3S,4R)-N-Methyl-4-(4-phenyl-piperidin-3-ylmethoxy)-benzamide] | 967 nM | 309 nM | – | –
3 | Cn1nc(OC[C@@H]2CNCC[C@H]2c2ccccc2)cc1C(F)(F)F [Example 24, (3S,4R)-3-(1-Methyl-5-trifluoromethyl-1 H-pyrazol-3-yloxymethyl)-4-phenyl-piperidine] | 87.7 nM | 519 nM | – | –
4 | CCOc1ccccc1OC[C@H]1CNCC[C@@H]1c1ccccc1 [Example 3, (3R,4S)-3-(2-Ethoxy-phenoxymethyl)-4-phenyl-piperidine] | 18.8 nM | 1260 nM | – | –
5 | CC(C)c1cc(C(N)=O)cc(C(C)C)c1OC[C@@H]1CNCC[C@H]1c1ccccc1 [Example 27, (3S,4R)-3,5-Diisopropyl-4-(4-phenyl-piperidin-3-ylmethoxy)-benzamide] | 5230 nM | ≥ 10000 nM | – | –
6 | CCCOc1ncccc1OC[C@H]1CNCC[C@@H]1c1ccccc1 [Example 8, (3R,4S)-3-(4-Phenyl-piperidin-3-ylmethoxy)-2-propoxy-pyridine] | 17 nM | 1330 nM | – | –
7 | NC(=O)c1cc(Cl)ccc1OC[C@@H]1CNCC[C@H]1c1ccccc1 [Example 37, (3S,4R)-5—CHloro-2-(4-phenyl-piperidin-3-ylmethoxy)-benzamide] | 431 nM | 1030 nM | – | –
8 | Cc1ccc(OC[C@H]2CNCC[C@@H]2c2ccccc2)nc1 [Example 5, (3R,4S)-5-Methyl-2-(4-phenyl-piperidin-3-ylmethoxy)-pyridine] | 2.29 nM | 2620 nM | – | –
9 | c1ccc([C@H]2CCNC[C@H]2COc2ccccc2C2CCCCC2)cc1 (relative stereo) [Example 56, cis-3-(2-Cyclohexyl-phenoxymethyl)-4-phenyl-piperidine] | 542 nM | 317 nM | – | –
10 | CS(=O)(=O)c1ccccc1OC[C@@H]1CNCC[C@H]1c1ccccc1 [Example 40, (−)-(3S,4R)-3-(2-Methanesulfonyl-phenoxymethyl)-4-phenyl-piperidine] | 5680 nM | 751 nM | – | –
11 | CN(C)C(=O)c1ccc(OC[C@@H]2CNCC[C@H]2c2ccccc2)cc1 [Example 32, (3S,4R)-N,N-Dimethyl-4-(4-phenyl-piperidin-3-ylmethoxy)-benzamide] | 861 nM | 2940 nM | – | –
12 | CC(C)COc1ncccc1OC[C@@H]1CNCC[C@H]1c1ccccc1 [Example 15, (3S,4R)-2-lsobutoxy-3-(4-phenyl-piperidin-3-ylmethoxy)-pyridine] | 20.7 nM | 4.9 nM | – | –
13 | Cc1cc(C(N)=O)cc(C)c1OC[C@@H]1CNCC[C@H]1c1ccccc1 [Example 34, (3S,4R)-3,5-Dimethyl-4-(4-phenyl-piperidin-3-ylmethoxy)-benzamide] | 3500 nM | 1440 nM | – | –
14 | FC(F)(F)c1ccc(OC[C@H]2CNCC[C@@H]2c2ccccc2)nc1 [Example 4, (3R,4S)-2-(4-Phenyl-piperidin-3-ylmethoxy)-5-trifluoromethyl-pyridine] | 15.3 nM | 1870 nM | – | –
15 | Cn1nc(OC[C@H]2CNCC[C@@H]2c2ccccc2)cc1C(F)(F)F [Example 13, (3R,4S)-3-(1-Methyl-5-trifluoromethyl-1 H-pyrazol-3-yloxymethyl)-4-phenyl-piperidine] | 2.69 nM | 612 nM | – | –

Continued, in another order:

Row | Ki [1, 3] | Ki [2, 4] | Compound | Ki [1] | Ki [2]
16 | 10.7 nM | 4.38 nM | CCOc1ncccc1OC[C@@H]1CNCC[C@H]1c1cccc(F)c1 (racemic) [Example 59, (±)-trans-2-Ethoxy-3-[4-(3-fluoro-phenyl)-piperidin-3-ylmethoxy]-pyridine] | – | –
17 | 83.5 nM | 19.5 nM | CC(C)c1ccccc1OC[C@@H]1CNCC[C@H]1c1ccccc1 (relative stereo) [Example 49, trans-3-(2-lsopropyl-phenoxymethyl)-4-phenyl-piperidine] | – | –
18 | 267 nM | 138 nM | CCCc1ccccc1OC[C@@H]1CNCC[C@@H]1c1ccccc1 (relative stereo) [Example 53, cis-4-Phenyl-3-(2-propyl-phenoxymethyl)-piperidine] | – | –
19 | 890 nM | 102 nM | COCc1ncccc1OC[C@@H]1CNCC[C@H]1c1ccccc1 [Example 31, (3S,4R)-2-Methoxymethyl-3-(4-phenyl-piperidin-3-ylmethoxy)-pyridine] | – | –
20 | 59.2 nM | 46.6 nM | CC(C)Cc1ncccc1OC[C@@H]1CNCC[C@H]1c1ccccc1 (racemic) [Example 62, (±)-trans-2-lsobutyl-3-(4-phenyl-piperidin-3-ylmethoxy)-pyridine] | – | –
21 | 3.14 nM | 157 nM | Cc1ccc(OC[C@@H]2CNCC[C@H]2c2ccccc2)nc1 [Example 20, (3S,4R)-5-Methyl-2-(4-phenyl-piperidin-3-ylmethoxy)-pyridine] | – | –
22 | 1050 nM | 215 nM | c1ccc(-c2ccccc2OC[C@@H]2CNCC[C@@H]2c2ccccc2)cc1 (relative stereo) [Example 55, cis-3-(Biphenyl-2-yloxymethyl)-4-phenyl-piperidine] | – | –
23 | 156 nM | 233 nM | Cc1cccc(OC[C@@H]2CNCC[C@H]2c2ccccc2)n1 [Example 46, (−)-(3S,4R)-2-Methyl-6-(4-phenyl-piperidin-3-ylmethoxy)-pyridine] | – | –
24 | 1050 nM | 51.5 nM | c1ccc(-c2ccccc2OC[C@@H]2CNCC[C@H]2c2ccccc2)cc1 (relative stereo) [Example 47, trans-3-(Biphenyl-2-yloxymethyl)-4-phenyl-piperidine] | – | –
25 | 158 nM | 33.3 nM | COc1cccnc1OC[C@@H]1CNCC[C@H]1c1ccccc1 [Example 44, (3S,4R)-3-Methoxy-2-(4-phenyl-piperidin-3-ylmethoxy)-pyridine] | – | –
26 | – | 2.1 nM | CCOc1ccccc1OC[C@@H]1CNCC[C@H]1c1ccccc1 (relative stereo) [Example 48, trans-3-(2-Ethoxy-phenoxymethyl)-4-phenyl-piperidine] | – | –
27 | 33 nM | 16 nM | CCCc1ccccc1OC[C@@H]1CNCC[C@H]1c1ccccc1 (relative stereo) [Example 50, trans-4-Phenyl-3-(2-propyl-phenoxymethyl)-piperidine] | – | –
28 | 89.7 nM | 14.4 nM | CCOc1cccnc1OC[C@@H]1CNCC[C@H]1c1ccccc1 [Example 43, (3S,4R)-3-Ethoxy-2-(4-phenyl-piperidin-3-ylmethoxy)-pyridine] | – | –
29 | 21.5 nM | 73.3 nM | N#Cc1ccc(OC[C@@H]2CNCC[C@H]2c2ccccc2)cc1 [Example 26, (3S,4R)-4-(4-Phenyl-piperidin-3-ylmethoxy)-benzonitrile] | – | –
30 | 732 nM | 146 nM | NC(=O)c1ncccc1OC[C@@H]1CNCC[C@H]1c1ccccc1 [Example 39, (3S,4R)-3-(4-Phenyl-piperidin-3-ylmethoxy)-pyridine-2-carboxylic acid amide] | – | –
31 | 174 nM | 75 nM | c1ccc([C@@H]2CCNC[C@H]2COc2ccccc2C2CCCCC2)cc1 (relative stereo) [Example 51, trans-3-(2-Cyclohexyl-phenoxymethyl)-4-phenyl-piperidine] | – | –
32 | 626 nM | 1.7 nM | N#Cc1ccccc1OC[C@@H]1CNCC[C@H]1c1ccccc1 [Example 42, (3S, 4R)-2-(4-Phenyl-piperidin-3-ylmethoxy)-benzonitrile] | – | –
33 | 71.8 nM | 36.5 nM | COc1nccnc1OC[C@@H]1CNCC[C@H]1c1ccccc1 [Example 45, (3S,4R)-2-Methoxy-3-(4-phenyl-piperidin-3-ylmethoxy)-pyrazine] | – | –
34 | 208 nM | 36.5 nM | CC(C)c1ccccc1OC[C@@H]1CNCC[C@@H]1c1ccccc1 (relative stereo) [Example 54, cis-3-(2-lsopropyl-phenoxymethyl)-4-phenyl-piperidine] | – | –
35 | – | 1.75 nM | CCOc1ccccc1OC[C@@H]1CNCC[C@H]1c1ccccc1 [Example 18, (3S,4R)-3-(2-Ethoxy-phenoxymethyl)-4-phenyl-piperidine] | – | –
